Test results taken from patent US6761895B2, “Drug delivery system for averting pharmacokinetic drug interaction and method thereof” (priority 2000, dated 2004).

Legend:
[1] = tested on: carriers on the epithelial cells of the small intestines; settings: cefadroxil concomitantly administered with cefalexine; cited from earlier work
[2] = with administration of cimetidine, concomitant use with ketoconazole; cited from earlier work
CYP3A4 [3] = assay: Test Example 4: midazolam plasma AUC in dogs, alone or with concomitant ketoconazole; settings: male, beagle, dog, po, 4 mg/dog
Procedure: (§1) (1) Aqueous solution for oral administration containing midazolam: After preparing commercial midazolam injectable liquid (brand name: Dormicum® injection) to a concentration of 0.2 mg/ml with aqueous hydrochloric acid solution (pH of 3), HPMC2910 was added at 3-times the amount of midazolam to obtain a liquid for oral administration.
The aqueous solution for oral administration containing midazolam was orally administered(4 mg/dog) using a catheter for oral administration to male beagle dogs (n=2) that had been fasted for approximately 20 hours.

CYP3A4 [4] = assay: Test Example 2: midazolam plasma AUC in dogs, alone or with concomitant conivaptan; settings: male, beagle, dog, po, 4 mg/dog
Procedure: The following experiments were conducted using midazolam, which is metabolized CYP3A4, as a concomitant drug of conivaptan hydrochloride.
as §1
After administration, blood was collected from the veins of the front legs and the plasma concentration of midazolam was determined by the HPLC/UV method over time.
Thirty minutes after administration the aqueous solution for oral administration containing midazolam was orally administered using a catheter for oral administration (4 mg/dog). After midazolam administration, blood was collected from the veins of the front legs and the plasma concentration of midazolam was determined by the HPLC/UV method over time.
Thirty minutes after administration an aqueous solution for oral administration containing midazolam (4 mg/dog) was orally administered using a catheter for oral administration. After midazolam administration, blood was collected from the veins of the front legs and the plasma concentration of midazolam was determined by the HPLC/UV method over time.

CYP3A4 [5] = assay: Test Example 3: midazolam plasma AUC in dogs, alone or with concomitant diltiazem; settings: male, beagle, dog, po, 4 mg/dog
Procedure: The aqueous solution for oral administration containing midazolam was orally administered (4 mg/dog) using a catheter for oral administration to a male beagle dogs (n=3) that had been fasted for approximately 20 hours.

SMILES: CC1=C(C(=O)O)N2C(=O)[C@@H](NC(=O)[C@H](N)c3ccc(O)cc3)[C@H]2SC1 [cefadroxil]
- change in cefadroxil plasma concentration [1]: reduction by approximately half

SMILES: CN/C(=N/CCSCc1nc[nH]c1C)NC#N [cimetidine]
- gastric pH [2]: 3 to 5

SMILES: Cc1ncc2n1-c1ccc(Cl)cc1C(c1ccccc1F)=NC2 [midazolam]
- AUC (CYP3A4 [3]): 68.7 ng·h/mL
- AUC (CYP3A4 [4]): 9 ± 6 ng·h/mL
- AUC (CYP3A4 [5]): 55 ng·h/mL
